Legend:
EPHA3 = experiment: KINOMEscan; type: binding; conditions: 1000 nM
FER = experiment: KINOMEscan; type: binding; conditions: 1000 nM
[1] = tested on: ABL1(M351T)-phosphorylated; experiment: KINOMEscan; type: binding; conditions: 1000 nM
PIK3CA(Q546K) = experiment: KINOMEscan; type: binding; conditions: 1000 nM
CDK9 = experiment: KINOMEscan; type: binding; conditions: 1000 nM
MKNK2 = experiment: KINOMEscan; type: binding; conditions: 1000 nM
TRKB = experiment: KINOMEscan; type: binding; conditions: 1000 nM
CDK4 = experiment: KINOMEscan; type: binding; conditions: 1000 nM
EPHA8 = experiment: KINOMEscan; type: binding; conditions: 1000 nM
EGFR(G719C) = experiment: KINOMEscan; type: binding; conditions: 1000 nM
FGFR1 = experiment: KINOMEscan; type: binding; conditions: 1000 nM
PRKX = experiment: KINOMEscan; type: binding; conditions: 1000 nM
PCTK3 = experiment: KINOMEscan; type: binding; conditions: 1000 nM
MYLK = experiment: KINOMEscan; type: binding; conditions: 1000 nM
NLK = experiment: KINOMEscan; type: binding; conditions: 1000 nM
IGF1R = experiment: KINOMEscan; type: binding; conditions: 1000 nM
PRKCD = experiment: KINOMEscan; type: binding; conditions: 1000 nM
FLT3(ITD,D835V) = experiment: KINOMEscan; type: binding; conditions: 1000 nM
DAPK3 = experiment: KINOMEscan; type: binding; conditions: 1000 nM
HASPIN = experiment: KINOMEscan; type: binding; conditions: 1000 nM
EPHA4 = experiment: KINOMEscan; type: binding; conditions: 1000 nM
FLT3(R834Q) = experiment: KINOMEscan; type: binding; conditions: 1000 nM
MLK1 = experiment: KINOMEscan; type: binding; conditions: 1000 nM
LZK = experiment: KINOMEscan; type: binding; conditions: 1000 nM
MYLK4 = experiment: KINOMEscan; type: binding; conditions: 1000 nM
FES = experiment: KINOMEscan; type: binding; conditions: 1000 nM
SLK = experiment: KINOMEscan; type: binding; conditions: 1000 nM
PIKFYVE = experiment: KINOMEscan; type: binding; conditions: 1000 nM
CSNK2A1 = experiment: KINOMEscan; type: binding; conditions: 1000 nM
TGFBR1 = experiment: KINOMEscan; type: binding; conditions: 1000 nM
ERK3 = experiment: KINOMEscan; type: binding; conditions: 1000 nM
EPHB3 = experiment: KINOMEscan; type: binding; conditions: 1000 nM
PAK4 = experiment: KINOMEscan; type: binding; conditions: 1000 nM
PRKG2 = experiment: KINOMEscan; type: binding; conditions: 1000 nM
[2] = tested on: ABL1(H396P)-nonphosphorylated; experiment: KINOMEscan; type: binding; conditions: 1000 nM
DDR1 = experiment: KINOMEscan; type: binding; conditions: 1000 nM
CDK4-cyclinD3 = experiment: KINOMEscan; type: binding; conditions: 1000 nM
TESK1 = experiment: KINOMEscan; type: binding; conditions: 1000 nM
SU-DHL-2 = experiment: anti-proliferative CellTiter-Glo assay; type: cell-based; conditions: Homo sapiens, SU-DHL-2, 72 h
Method: (§1) Cell viability was measured using the CellTiter–Glo assay (Promega, USA) according to the manufacturer’s instructions, and […] was measured in a Bio-red Microplate reader (Bio-Red, USA).

WSU-DLCL2 = experiment: anti-proliferative CellTiter-Glo assay; type: cell-based; conditions: Homo sapiens, WSUDLCL2; WSU-DLCL2, 72 h
Method: as §1

SU-DHL-6 = experiment: anti-proliferative CellTiter-Glo assay; type: cell-based; conditions: Homo sapiens, SU-DHL-6, 72 h
Method: as §1

TMD8 = experiment: anti-proliferative CellTiter-Glo assay; type: cell-based; conditions: Homo sapiens, TMD8, 72 h
Method: as §1

Ramos = experiment: anti-proliferative CellTiter-Glo assay; type: cell-based; conditions: Homo sapiens, 72 h
Method: as §1

JEKO-1 = experiment: anti-proliferative CellTiter-Glo assay; type: cell-based; conditions: Homo sapiens, JeKo-1, 72 h
Method: as §1

DOHH2 = experiment: anti-proliferative CellTiter-Glo assay; type: cell-based; conditions: Homo sapiens, DOHH-2; DOHH2, 72 h
Method: as §1

Pfeiffer = experiment: anti-proliferative CellTiter-Glo assay; type: cell-based; conditions: Homo sapiens, 72 h
Method: as §1

U2932 = experiment: anti-proliferative CellTiter-Glo assay; type: cell-based; conditions: Homo sapiens, U2932, 72 h
Method: as §1

REC-1 = experiment: anti-proliferative CellTiter-Glo assay; type: cell-based; conditions: Homo sapiens, Rec1; REC-1, 72 h
Method: as §1

Raji = experiment: anti-proliferative CellTiter-Glo assay; type: cell-based; conditions: Homo sapiens, 72 h
Method: as §1

AKT2 = experiment: KINOMEscan; type: binding; conditions: 1000 nM
FLT1 = experiment: KINOMEscan; type: binding; conditions: 1000 nM
GAK = experiment: KINOMEscan; type: binding; conditions: 1000 nM
CAMK2B = experiment: KINOMEscan; type: binding; conditions: 1000 nM
[3] = tested on: NK cells co-seeded with Mino cells; experiment: IFN-γ secretion ELISA, NK cells co-cultured with Mino cells in presence of Rituximab; type: cell-based, human; conditions: Mino co-culture; 0.1 to 3 μM
ALK(L1196M) = experiment: KINOMEscan; type: binding; conditions: 1000 nM

## C=CC(=O)Nc1cc(Nc2cc(-c3cccc(NC(=O)c4cc5c(s4)CCCC5)c3C)cn(C)c2=O)ccc1N1CCN(CC)CC1 [CHMFL-BTK-85]
EPHA3
  Percent Control: 98%
FER
  Percent Control: 83%
[1]
  Percent Control: 100%
PIK3CA(Q546K)
  Percent Control: 100%
CDK9
  Percent Control: 100%
MKNK2
  Percent Control: 100%
TRKB
  Percent Control: 100%
CDK4
  Percent Control: 100%
EPHA8
  Percent Control: 91%
EGFR(G719C)
  Percent Control: 81%
FGFR1
  Percent Control: 86%
PRKX
  Percent Control: 95%
PCTK3
  Percent Control: 86%
MYLK
  Percent Control: 66%
NLK
  Percent Control: 100%
IGF1R
  Percent Control: 76%
PRKCD
  Percent Control: 77%
FLT3(ITD,D835V)
  Percent Control: 100%
DAPK3
  Percent Control: 65%
HASPIN
  Percent Control: 100%
EPHA4
  Percent Control: 100%
FLT3(R834Q)
  Percent Control: 100%
MLK1
  Percent Control: 81%
LZK
  Percent Control: 100%
MYLK4
  Percent Control: 94%
FES
  Percent Control: 98%
SLK
  Percent Control: 95%
PIKFYVE
  Percent Control: 78%
CSNK2A1
  Percent Control: 94%
TGFBR1
  Percent Control: 88%
ERK3
  Percent Control: 100%
EPHB3
  Percent Control: 100%
PAK4
  Percent Control: 100%
PRKG2
  Percent Control: 95%
[2]
  Percent Control: 92%
DDR1
  Percent Control: 100%
CDK4-cyclinD3
  Percent Control: 88%
TESK1
  Percent Control: 96%
SU-DHL-2
  GI50: 570 ± 350 nM
WSU-DLCL2
  GI50: 1400 ± 210 nM
SU-DHL-6
  GI50: 970 ± 220 nM
TMD8
  GI50: 17 ± 4 nM
Ramos
  GI50: 1300 ± 100 nM
JEKO-1
  GI50: 1100 ± 240 nM
DOHH2
  GI50: 700 ± 150 nM
Pfeiffer
  GI50: 290 ± 140 nM
U2932
  GI50: 800 ± 96 nM
REC-1
  GI50: 28 ± 7 nM
Raji
  GI50: 1500 ± 58 nM
AKT2
  Percent Control: 88%
FLT1
  Percent Control: 100%
GAK
  Percent Control: 100%
CAMK2B
  Percent Control: 100%
[3]
  inhibition of Rituximab-induced IFN-γ secretion in NK cells: no apparent inhibition
ALK(L1196M)
  Percent Control: 100%
